Results reported in a melting point compilation (Tetko et al.; mined from patent text by program, amines drawn as free bases though some values may be those of a salt).

| SMILES | melting point |
| --- | --- |
| Cc1ccc(-c2ccc3c(c2)C=C(C(=O)Nc2ccc(C(=O)C4CCCCN4C(=O)OC(C)(C)C)cc2)CCO3)cc1 (stereo not given) | 223 to 224 °C |
| CN(C)CCCNC(CC(=O)O)C(=O)OC1CCCCC1 (stereo not given) | 150 to 152 °C |
| CC(C)(C)Nc1nc(C#N)c(C#N)nc1Cl | 169 to 173 °C |
| CS(=O)(=O)c1ccc(-c2cnn(-c3ccc(F)c(Cl)c3)c(=O)c2-c2ccc(F)cc2)cc1 | 155 to 157 °C |
| CC[C@@H](NC(=O)N1CC(=O)NCC(Cc2cc(Cl)ccc2OC)C1=O)C(=O)Nc1nnn[nH]1 (stereo not given in full) | 141 to 142 °C |
| CC(C)Oc1ccc(N)c(C(=O)O)c1 | 120 to 122 °C |
| Cc1cccc(C(C#N)N2CCOCC2)c1 (stereo not given) | 59 to 60 °C |
| CNCC(O)(Cn1cncn1)c1ccc(Cl)cc1Cl (stereo not given) | 98 to 101 °C |
| O=C1C(=Cc2ccc(Cl)cc2)CC23OC2C=CC=C13 (stereo not given) | 162 to 164 °C |
| CCOC(=O)c1cn(C)c2cc(Cl)sc2c1=O | 168 to 171 °C |
| N#CCCCCCCNc1ccc(O)cc1 | 75 to 76 °C |
| COc1cccc2cc(C(=O)N[C@@H](CC(N)=O)C(=O)N[C@@H](Cc3ccccc3)[C@H](O)C(=O)N3C[C@@H](Cl)C[C@H]3C(=O)NC(C)(C)C)oc12 | 125 to 136 °C |
| CCCCCCCCCCCCCCCCCCCC(=O)OCC(O)COC(=O)CCCCCCCCCCCCCCCCCCC | 83 to 84 °C |
| COc1cc([N+](=O)[O-])c(F)cc1Br | 74 to 76 °C |
| O=C(NC(=O)c1c(F)cccc1F)Nc1ccc(OC(F)(F)C(F)F)c(C(F)(F)F)c1 | 182 to 185 °C |
| CC1CC2=CC(=O)CCC2C2C(Cl)CC3(C)C(=O)CCC3C12 (stereo not given) | 215 °C |

| SMILES | melting point |
| --- | --- |
| O=c1cnn(-c2ccc(Cl)c(C(c3ccc(Cl)cc3)c3nc(-c4ccccc4)c(CNC(=S)Nc4ccccc4)s3)c2Cl)c(=O)[nH]1 (stereo not given) | 159 °C |
| CC#CC(C)Oc1cc(N)c(Cl)cc1C(=O)O (stereo not given) | 114 to 116 °C |
| OCC1=CC=C(COc2cc(C(F)(F)F)ccc2Cl)SS1 | 94.2 to 96 °C |
| Cc1cc2n[nH]c(=O)n2nc1-c1ccc(C#N)cc1 | > 300 °C |
| CCC1(C)OC(c2ccc(S(C)(=O)=O)cc2)=C(c2cc(F)cc(F)c2)C1=O (stereo not given) | 122 to 124 °C |
| Nc1nc(N)nc(-c2ccc3c(c2)OC(F)(F)C(F)(F)O3)n1 | 176 to 179 °C |
| CC#Cc1cc(=O)n2nc(SCCCCCC)sc2n1 | 94 to 97 °C |
| Cc1nc2ccc(NC3=NCCN3)c(Br)c2nc1C | 252 to 254 °C |
| CC(=O)N[C@@H]1CN2C(=O)N(c3cc(Cl)cc(Cl)c3)C(=O)[C@@]2(Cc2ccc(Br)cc2)C1 | 141 °C |
| COc1c(Br)c(-c2cc(C(C)C)n(C)n2)cc2oc(=O)c(C)c(C)c12 | 177 to 179 °C |
| COC(=O)C1=C(C)NC(O)=C(C(=O)OC)C1c1cccc([N+](=O)[O-])c1 (stereo not given) | 150 to 152 °C |
| Nc1c(Cl)cc2c3c(cccc13)C(=O)N(O)C2=O | 354 to 359 °C |
| CCCOc1cc2sc(C(=O)O)cc2cc1OCC | 192 to 194 °C |
| Cc1cc(C(C)(C)C)cc(C)c1SSc1c(C)cc(C(C)(C)C)cc1C | 127 to 128 °C |
| CCCCCCCCCCCC(=O)c1ccc(CCOC(C)=O)cc1 | 32 to 33 °C |
| CC(C)(C)NC(=O)[C@@H]1[C@@H](O)CCN1C(=O)OC(C)(C)C | 122 to 124 °C |

The next lines start with the values.

| melting point | SMILES |
| --- | --- |
| 276 to 278 °C | NC(=O)c1ccccc1N=C(NC(=O)c1ccccc1)NC(=O)c1ccccc1 |
| 111 °C | Cc1ccc(-c2nc3ccc(OCCN4CCCCC4)cc3n2-c2ccccc2)cc1C |
| 118 to 119 °C | CC(C)(C)c1cc(CCc2ccc(F)cc2NC(=O)NC2CCN(Cc3ccccc3)CC2)cc(C(C)(C)C)c1O |
| 279 °C | CNC(=O)C1CCN(c2cc(-c3ccc(Cl)cc3)nc3ccc(F)cc23)CC1 |
| 140 to 145 °C | Nc1cc(Cl)c(Cc2ccc(C(=O)c3cnc(Cl)c(Cl)c3)cc2)c(Cl)c1 |
| 262 to 265 °C | O=[N+]([O-])c1cccc(-c2nc(O)cc3cccnc23)c1 |
| 125 to 126 °C | O=C(Cc1ncc[nH]1)c1ccc2ccccc2c1 |
| 211 to 216 °C | Cc1cnn2c(-c3cccc(-c4ccccc4C#N)c3)cnc2n1 |
| 82 °C | O=c1oc2ccccc2c(OCCCN2CCOCC2)c1-c1ccccc1 |
| 174 to 176 °C | CCc1cc(C2(c3cccc(-c4cccnc4F)c3)N=C(N)N3CCCN=C32)cc(CC)n1 (stereo not given) |
| 117 to 123 °C | Cc1noc(NS(=O)(=O)c2ccccc2-c2ccc(-c3ncco3)cc2CC(=O)NC(C)(C)C)c1C |
| 199 to 200 °C | COc1cc2c(cc1O)CCN(C(=O)c1ccccc1OC)C2=O |
| 208 °C | O=C(Nc1ccc2ccc(-c3cccc(F)c3)nc2n1)c1cccc(Br)c1 |
| 210 to 212 °C | O=C(NCc1ccc([N+](=O)[O-])cc1)c1ccc2cccnc2c1O |
| 120 to 122 °C | O=C(Nc1nccs1)C(CC1CCCC1)c1ccc(Cl)c(Cl)c1 (stereo not given) |
| 118 to 120 °C | Clc1cccc(-c2nc(Cl)cc(Cl)n2)c1 |
| 85 to 87 °C | CCOC(=O)CCCCCOc1ccc(-c2ccccc2)c(-c2ccccc2)n1 |
| 300 to 305 °C | N#Cc1cnc2cc(-c3ccc(C=O)cc3)sc2c1Cl |
| 154 to 155 °C | CN(Cc1cc(C(F)(F)F)cc(C(F)(F)F)c1)C(=O)c1nc(N2CCOCC2)ncc1-c1ccccc1 |

| melting point | SMILES |
| --- | --- |
| 142 to 144 °C | Cc1cc(=O)c2c(OCCOc3ccccc3)cccc2o1 |
| 233 °C | Cc1cc(-c2cc(C(F)(F)F)n3ncc(C(=O)Nc4cccc(S(C)(=O)=O)c4)c3n2)ccc1C(F)(F)F |
| 94 to 96 °C | CCCc1c(OCCCC(=O)NCCc2cccnc2)ccc(C(C)=O)c1O |
| 64 to 65.6 °C | COC(=O)CCCCCOc1ccc(NC(=O)CCCCCOCc2ccccc2)cc1 |
| 193 to 195 °C | CN1C(=O)C(c2ccncc2)(c2ccc(OC(F)F)cc2)N=C1N (stereo not given) |
| 173 to 174 °C | COc1ccc(S(=O)O)cc1 |
| 173 °C | O=C(NC(=O)c1ccccc1F)Nc1ccc(F)c(C(F)(F)F)c1Cl |
| 122 to 124 °C | CC(C(=O)N(C)C)n1cc(-c2ccccc2)c(-c2ccccc2)n1 (stereo not given) |
| 190 °C | COc1ccccc1C1(O)C(O)CC(C)(C)C2CN(Cc3ccccc3)CC21 (stereo not given) |
| 169 to 170 °C | O=C(c1ccc([N+](=O)[O-])cc1)N1Cc2ccc(C(=O)C(F)(F)F)n2Cc2ccccc21 |
| 89 to 91 °C | CCOC(=O)c1cnc2c(cnn2-c2ccccc2)c1N(Cc1cccnc1)S(=O)(=O)c1ccc(OC)cc1 |
| 133 to 134 °C | CCOC(=O)C1=C(C)NC(c2cscn2)=NC1c1cccc(C)c1 (stereo not given) |
| 91 to 93 °C | Cc1ccccc1/C=C/c1nc(COc2ccc(CCCCn3ccnc3CCO)cc2)co1 |
| 97 to 99 °C | CCc1ccc([N+]([O-])=Cc2ccc(C)cc2)cc1 |
| 235 to 238 °C | Oc1ccc2cc(-c3cnc(-c4ccccc4)o3)ccc2c1 |
| 160 to 165 °C | O=C1CCCc2cc3c(cc21)sc1ccccc13 |
| 116 to 118 °C | COCCc1nc2ccccn2c(=O)c1-c1ccc(Cl)cc1 |
| 186 to 193 °C | Nc1ccccc1/C=C/C(=O)CC(=O)/C=C/c1ccc(O)cc1 |
| 169 to 171 °C | NC(=O)c1ccnc(-c2csc(N=C(N)N)n2)c1 |
